Results on two compounds are retold here after patent publication US10450572B2, “Androgen receptor variant inhibitors and methods of using” (Regents of the University of Minnesota, priority 2016, dated 2019).

Entries after “also recorded” stand apart in the source; their conditions may differ. {Fluorescein} = fluorescein label

For data set [1], the system named is AR-FL. The data set can be described thus: AR subcellular fractionation and western blot. It is filed as cell-based, human. The settings on record: 22Rv1-undup3 cells; 1 nM, 24 hours; FIG. 8. Here is the method:
For AR subcellular fractionation, 22Rv1-undup3 cells were seeded in RPMI medium supplemented with 10% CSS for 24 hours and treated with either ethanol (vehicle) or 1 nM mibolerone (synthetic androgen) for 24 hours. Cells were washed with 1×PBS, harvested in hypotonic buffer, and subjected to subcellular fractionation as described elsewhere (see, e.g., Chan et al., 2012, J. Biol. Chem., 287:19736-49). Lysates in 1× Laemmli buffer were loaded in equal volumes on either 7.5% or 4-15% polyacrylamide gels (Biorad TGX) and electrophoresed at 200v for 30 minutes.
Blots were incubated with antibodies specific to CPSF1 (Bethyl, A301-580, 1:1000), AR (Santa Cruz Santa Cruz Biotechnology N-20, 1:2000), extracellular signal-regulated kinase-2 (ERK-2; Santa Cruz Biotechnology D-2, 1:4000), and AR-V7 (Precision Antibodies, 1:1000). HRP-conjugated goat-anti-mouse (#sc 2005, lot#D1515), and goat-anti-rabbit (#sc 2004, lot#B1315) secondary antibodies were obtained from Santa Cruz and were used at 1:10000 dilutions. Blots were incubated in enhanced chemiluminescence substrate (WesternBright, Advansta #K12045-D50 or SuperSignal West Pico, Thermo #1859674) and exposed to X-ray film for chemiluminescence detection.

The next data set has as its system AR-V7 mRNA. Put plainly: specificity test with morpholinos tiling the CE3 PAS: AR-V7 mRNA. It counts as cell-based, human. Particulars: 22Rv1 cells; 10 μM morpholino, 24 hours after transfection; FIG. 19B. Here is the method:
(§1) GeneTools' design tool was used to design morpholinos targeting upstream and downstream regions of AR CE3. Sequences were as follows:
(§2) 22Rv1 cells were transfected with 10 μM control and morpholinos tiling upstream (us) and downstream (ds) of the CE3 PAS (us 100, us 50, CE3 pAM, ds 50, ds 150).
(§3) Total RNA from tumor tissue was purified using the Promega Reliaprep Tissue kit according to manufacturer instructions, including the on-column DNAse treatment. RNA was eluted in nuclease free water. Reverse transcription and quantitative PCR were performed as described in Example 2. Data were analyzed using the ΔΔCt method and normalized to actin-2 (internal control).

Another data set deals with AR-V proteins. Put plainly: AR-V protein expression in E43 cells (western blot). It counts as cell-based. The settings on record: E43 cells transfected with CE3 pAM; FIG. 3A. Here is the method: (§4) E43 cells were cultured in RPMI-1640 and supplemented with 10% FBS and 500 μg/mL penicillin/streptomycin. For androgen blockade experiments, E43 cells were cultured in RPMI-1640 supplemented with 10% charcoal stripped FBS and 500 μg/mL penicillin/streptomycin. Transient transfections were performed using a BTX Square Wave electroporator. Transient transfection of E43 cells with the indicated concentration of CE3 pAM were carried out in RPMI-1640 supplemented with 10% FBS, and subsequently plated in appropriate culture medium. When appropriate, E43 cells were treated with 10 μM enzalutamide (MDV-3100, Selleck Chemicals) in indicated cell culture medium. E43 cells in cell culture medium were treated with vivo-CE3 pAM in 1X phosphate buffered saline at the indicated concentrations.

For another data set, the system named is 22Rv1-undup3 cells. The data set can be described thus: crystal violet growth assay of 22Rv1-undup3 cells. It counts as cell-based, human. Particulars: 22Rv1-undup3 cells transfected with 10 μM, FIG. 11D. Here is the method: (§5) 22Rv1 cells (CRL-2505) were obtained from ATCC (Manassas, Va., USA) and cultured according to ATCC protocol. LNCaP95 cells were cultured in phenol red free RMPI 1640 (Invitrogen) supplemented with 10% fetal bovine serum and 1× penicillin/streptomycin. VCaP cells (ATCC CRL-2876) were cultured in DMEM medium (Invitrogen) supplemented with 10% fetal bovine serum and 1× penicillin/streptomycin. ATCC authenticates human cell lines using short tandem repeat analysis. Cell lines were routinely monitored for mycoplasma infection by regularly evaluating aliquots of supernatants from cells in culture for mycoplasma contamination using a PCR-based method as described elsewhere (see, e.g., Uphoff et al., 2012, J. Biomed. Biotechnol., 2012:267678).
Cell/siRNA mixtures were electroporated in a 4-mm gap-width cuvette (BTX) with a BTX Square Wave Electroporator (22Rv1 and sublines: 350 V, 10 ms pulse, LNCaP95: 305 V, 10 ms pulse). Following a 15-minute recovery, cells were seeded in appropriate culture medium. […]
(§6) Electroporated 22Rv1 cells and sublines were seeded at 20,000 cells per well in 24 well dishes in RPMI 1640 supplemented with 10% charcoal-stripped FBS. […] Crystal violet staining assays were performed as described elsewhere (see, e.g., Li et al., 2013, Cancer Res., 73:483-9) and absorbance was measured at 560 nm. Significance was assessed by two tailed t-tests in GraphPad.

In a further data set the test system is 22Rv1 cells. Put plainly: crystal violet growth assay of 22Rv1 cells. Particulars: parental 22Rv1 cells transfected with 10 μM; androgen-deplete conditions; FIG. 11D. It is filed as cell-based, human. Here is the method: as §5
GeneTools' design tool was used to design a 25-mer consisting of the sequence 5′-[…]-3′ (SEQ ID NO:2) targeted to the CE3 PAS (CE3 pAM). As a control, a standard commercially available nontargeting control morpholino was used (GeneTools). […]
as §6

The next data set deals with full-length AR (AR-FL). Put plainly: full-length AR expression in E43 cells. It counts as cell-based. Particulars: E43 cells transfected with CE3 pAM; FIG. 3A. The protocol: as §4
For data set [2], the system named is AR-V2, AR-V5, AR-V7, and AR-V9 mRNA. Put plainly: AR-V mRNA expression in E43 cells. It is filed as cell-based. Particulars: E43 cells transfected with CE3 pAM; FIG. 3B. Here is the method:
as §4

For the next data set, the system named is AR mRNA. The data set can be described thus: specificity test with morpholinos tiling the CE3 PAS: AR mRNA. It counts as cell-based, human. The settings on record: 22Rv1 cells; 10 μM morpholino, 24 hours after transfection; FIG. 19B. The protocol:
as §1, §2, §3

The test system of data set [3] is AR-FL. Put plainly: AR-FL expression after morpholino transfection. It counts as cell-based, human. Particulars: FIG. 11C. The protocol: as §5, with “2012:267678). […]” for “2012:267678).”
(§7) RNA was isolated from cells using the Reliaprep RNA Miniprep System (Promega) and purified according to kit manufacturer instructions, including a 30-minute room temperature DNase treatment. […] RNA concentration and integrity were assessed by denaturing gel electrophoresis or by spectrophotometry with a NanoDrop 2000 (ThermoFisher). […]
(§8) Quantitative PCR was performed using Quanta PerfeCTa master mix, 200 nM forward and reverse primers, and 2 μL input cDNA (serially diluted in nuclease free water 1:50 for 18S samples) in 20 μL reactions. […] Cycle thresholds (Ct) were determined using the Biorad CFX manager software. […]

Data set [4] deals with AR-V7, AR-V9 (EX3:CE5), AR-V1 (EX3:CE1), AR-V6 (EX3:CE2a). The data set can be described thus: AR-V mRNA and protein expression after morpholino transfection (RT-qPCR, western blot). It counts as cell-based, human. Particulars: FIG. 11C. The protocol: as §5, with “2012:267678). […]” for “2012:267678).”
as §7, §8
For orientation: In qPCR the cycle at which signal appears reflects the starting amount.

The test system of the next data set is E43 cells. Put plainly: crystal violet growth assay of E43 cells. It is filed as cell-based. Particulars: FIG. 3C; for cell growth (crystal violet staining): E43 cells. Here is the method:
as §4
20,000 E43 cells transfected with 10 μM CE3 pAM or control morpholino were plated in 24-well dishes in the indicated culture medium and subjected to the indicated drug treatments. Crystal violet assays were performed on cells on days 2, 4, 6, 8, 11, and 14. Briefly, cells were fixed in 1% glutaraldehyde in 1X PBS and stained with 0.5% crystal violet in distilled water. At the end of the timecourse, fixed and stained cells were subjected to treatment with Sorenson's buffer (6.1 ml of 0.1 M disodium citrate, 3.9 ml of 0.1N HCl, and 10 ml of 95% ethanol) to release dye. Absorbance was measured at 560 nm.

The mark [5] stands for this setting: 22Rv1-undup3 cells transfected with 10 μM.
The mark [6] stands for this setting: 22Rv1 cells transfected with 10 μM.

Take `C[C@@H]1CC2=CC(=O)CC[C@@H]2[C@H]2CC[C@@]3(C)[C@@H](CC[C@]3(C)O)[C@@H]21` [mibolerone]: the “nuclear localization of AR-FL” value in the data set with AR-FL [1] is given as “strong nuclear localization; also recorded: localizes to the nucleus”.

On to “CE3 pAM: 25-mer morpholino 5′-GTGTATTAATGGCTTTATTAAGGGA-3′ (SEQ ID NO:2) designed to block the AR CE3 poly A signal (all phosphorodiamidate morpholino (PMO), 3' {Fluorescein}; further chemistry not fully specified)”, for which the “AR-V7 mRNA levels” value in the data set on AR-V7 mRNA was “reduced”. The “expression of AR-V proteins” value in the data set with AR-V proteins is listed as “blocks; also recorded: dramatically reduced”. Further, the “growth (crystal violet)” value in the data set with 22Rv1-undup3 cells (androgen-deplete conditions) is “reduction in growth”; in the data set on 22Rv1-undup3 cells (androgen-replete conditions (1 nM DHT)) it was “inhibited growth”; with 22Rv1 cells, “reduction in growth”. The “expression of full-length AR (AR-FL)” value in the data set on full-length AR (AR-FL) is recorded as “increase expression”. Moreover, in data set [2], the “expression of AR-V2, AR-V5, AR-V7, and AR-V9 mRNA” value is on record as “blocks; also recorded: blocked expression”. The “AR mRNA levels” value in the data set with AR mRNA is on record as “increased”. The “expression of AR-FL” value with AR-FL [3] (setting [5]) and in the data set on AR-FL [3] (setting [6]) was “increase” each time. Moreover, the “mRNA and protein expression of AR-V7, AR-V9, AR-V1, AR-V6” value in [4] (setting [5]) and in data set [4] (setting [6]) was “reduction” in each case. Further, in the data set with E43 cells (E43 cells transfected, charcoal stripped serum, plus 10 uM enzalutamide), the “reduction in cell growth assessed by crystal violet staining” value is reported as roughly 50%. Besides, the “cell growth (crystal violet staining)” value is “blocks growth; also recorded: inhibited cell growth” with E43 cells (10 μM morpholino transfected, maximum androgen blockade castration+enzalutamide) and “not under androgenic conditions” in the data set with E43 cells (transfected, androgenic conditions).
